Experimental data reported in patent US20240166687A1, “REGULATORY T CELL-INDUCING PEPTIDE AND COMPOSITION INCLUDING SAME FOR PREVENTING OR TREATING AUTOIMMUNE DISEASE” (IUCF-HYU (INDUSTRY-UNIVERSITY COOPERATION FOUNDATION …, priority 2021, published 2024).
“Also recorded” adds a separate entry of the source.

B1: KIKKVKKKGRKGSKIKKVKKKGRKGGAMLAAASPLTTGVYVKMPPTEPECEKQFQPYFIPIN (peptide)
chain: KIKKVKKKGRKGSKIKKVKKKGRKGGAMLAAASPLTTGVYVKMPPTEPECEKQFQPYFIPIN
notes: dNP2-ctCTLA-4 variant, K motif residues replaced with alanine

Key:
[1] = system: multiple sclerosis animal model; assay: Analysis of efficiency in multiple sclerosis (MS) animal model (MOG35-55/CFA + PTX); format: in vivo, C57BL/6 mice; conditions: for clinical symptoms (clinical score): 100 μg (5 mg/kg) intraperitoneally once a day from day 7 after PTX; for clinical symptoms (clinical score) / number of Treg cells (spinal cord) / number of infiltrated lymphocytes in the spinal cord: comparator as named in the value
Procedure: 8-week-old female C57BL/6 mice were purchased from Orient Bio (Daejeon, Korea). All animal experiments were conducted in compliance with the animal experiment operation regulations of the Institutional Animal Care and Use Committee of Hanyang University. The mice were acclimatized for 2 weeks before the experiment. The mice were raised in a breeding room maintained at temperature 22±2° C. and 40-60% humidity with free access to feed. The light and dark cycles were adjusted at 12-hour intervals. Multiple sclerosis was induced by subcutaneous immunization using a MOG35-55/CFA emulsion PTX kit (Hooke Labs, Lawrence, MA, USA) according to the manufacturer's protocol. The mice were anesthetized with isoflurane and MOG35-55/CFA was subcutaneously injected bilaterally, followed by intraperitoneal injection of PTX (pertussis toxin) 2 hours and 24 hours later. The mice were randomly assigned to different groups after MOG immunization. Because paralysis due to immune response begins on day 7 after the injection of PTX, 100 μg (5 mg/kg) of the samples according to the present disclosure were intraperitoneally injected to the groups once a day from day 7. Each group was monitored every day after inducing multiple sclerosis and clinical symptoms were recorded. The clinical symptoms were evaluated based on the scoring system described in Table 2. The higher clinical scores indicate severer symptoms. The mice were euthanized at the end of the experiments and lymphocytes were isolated from the spinal cords. The isolated spinal cords were treated at 37° C. with 1 mg/mL of DNase 1 (10104159001; Sigma-Aldrich) and 1 mg/mL of collagenase D (11088866001; Sigma-Aldrich) and incubated at 80 rpm on a shaker for 40 minutes. After the enzyme treatment, 500 mM EDTA was added and lymphocytes were isolated by Percoll (GE Healthcare, Little Chalfont, UK) density-gradient centrifugation. The isolated infiltrated lymphocytes were restimulated with a cell stimulation cocktail (plus protein transport inhibitors) (ThermoFisher) at 37° C. for 4 hours and stained with anti-mouse CD4. The cells were fixed, permeabilized using a Foxp3/transcription factor staining buffer set (eBioscience) and stained with anti-mouse IFN-γ, anti-mouse IL-17 or anti-mouse Foxp3. The cells were analyzed using a FACS Canto flow cytometer and the FlowJo software version 10.7.1. For histological analysis, paraffin blocks of the spinal cord tissues were deparaffinized and treated with luxol fast blue. For combination staining, hematoxylin and eosin were used (Dako). The cells infiltrated in the white matter region of the spinal cord tissues were counted using the Image J software version 2.0.0. The increased number of Th1 and Th17 immune cells in the spinal cord means more severe multiple sclerosis, and the increased number of Treg cells means that the function of preventing or treating autoimmune disease such as multiple sclerosis is improved as the tolerance to self-antigens is maintained and the excessive response by the immune system is prevented.

[2] = system: Th17 cells differentiated from splenocytes isolated from mouse; assay: Analysis of effect under Th17 differentiation conditions (flow cytometry of IL-17A and Foxp3); format: cell-based; conditions: sample 2 μM; for effect of suppressing immune response (decrease of IL-17 and increase of Foxp3): flow cytometry 4 days later, comparator as named in the value (Th17/PBS control, K1, AP-K2)
Excerpt: Th17 cells are a subset of CD4 T cells. The Th17 cells are known to secrete a cytokine known as IL-17 and cause inflammation. This is the major cause of autoimmune disease. And, Treg cells (regulatory T cells) are known to suppress and regulate inflammation by expressing the transcription factor called Foxp3. Accordingly, since it is thought that the effect of preventing and treating autoimmune disease may be achieved by regulating inflammation by inhibiting Th17 cells (IL-17) and increasing Treg (Foxp3) cells, the effect of the peptides of the present disclosure was investigated.
Undifferentiated CD4 T cells (naive CD4 T cells) were isolated from splenocytes of 6- to 8-week-old C57BL/6 mice using a mouse undifferentiated CD4+ T cell (naive CD4 T cell) isolation kit (Miltenyi Biotec, Auburn, CA, USA) according to the manufacturer's protocols. For RNAseq, the undifferentiated CD4 T cells (naive CD4 T cells) from the Foxp3-GFP mice were purified, differentiated into Th17 cells and sorted into Foxp3^+ and Foxp3^− populations using a cell sorter (FACS Aria cell sorter BD Biosciences, Franklin Lakes, NJ, USA). The purified undifferentiated CD4 T cells (naive CD4 T cells) were activated with plate-bound anti-CD3 (2 or 5 μg/mL, 553057; BD Pharmingen, La Jolla, CA) and anti-CD28 (2 or 5 μg/mL, 553294; BD Pharmingen, La Jolla, CA) antibodies and differentiated by treating with the following cytokine cocktails in a 96-well plate for 3 or 4 days: Th0; recombinant human TGF-β(R&D Systems) 0.25 ng/mL. Th1; anti-IL-4 (11B11; 16-7041-85; eBioscience) 5 μg/mL, IL-2 (212-12; Peprotech, Rocky Hill, NJ) 50 U/mL, recombinant murine IL-12 (212-12; Peprotech) 2 ng/mL, recombinant human TGF-β (R&D Systems) for Th1 0.25 ng/mL. Th17; anti-IFN-γ (XMG1.2; 16-7311-85; eBioscience) 5 μg/mL, anti-IL-4 (11B11; 16-7041-85; eBioscience) 5 μg/mL, recombinant murine TGF-β (7666-MB, R&D Systems, Minneapolis, MN) 2 ng/mL, IL-6 (216-16; Peprotech) 30 ng/mL, IL-23 (1887-ML-101; R&D Systems) 20 ng/mL, IL-1β (401-ML-010; R&D Systems) 20 ng/mL, and IL-2 (Peprotech) 50 U/mL. Treg; IL-2 (Peprotech) 50 U/mL and TGF-β (R&D Systems) 0.5 ng/mL.
The cells were cotreated with the cytokine cocktails and the samples (2 μM). 4 days later, they were analyzed by flow cytometry using IL-17 and Foxp3 fluorescent antibodies. In some experiments, 5 μM PKC-η pseudosubstrate inhibitor (sc-3096; Santa Cruz) or 5 μM ERK inhibitor (UO126, 662005; Sigma) were also added.
For flow cytometric analysis of living cells only, dead cells were excluded using the Zombie Aqua™ fixable viability kit (Biolegend) before staining with antibodies at room temperature for 10 minutes. After washing, surface proteins of the differentiated Th1, Th17 and Treg cells were stained with monoclonal antibodies at 4° C. for 15 minutes. To determine intracellular cytokine levels, the cells were restimulated with a cell stimulation cocktail (plus protein transport inhibitors) (ThermoFisher) at 37° C. for 4 hours and then stained with surface marker antibodies. The cells were then fixed, permeabilized using a Foxp3/transcription factor staining buffer set (eBioscience) and stained with anti-mouse IFN-γ, anti-mouse IL-17 and anti-mouse Foxp3. The cells were analyzed using a FACS Canto II flow cytometer and the FlowJo software version 10.7.

[3] = 100 μg intraperitoneally once a day from day 7

| Molecule | clinical symptoms (clinical score) [1] | number of regulatory T cells (Treg) compared to dNP2-ctCTLA-4 [1, 3] | number of Treg cells (spinal cord) [1, 3] | number of infiltrated lymphocytes in the spinal cord [1, 3] | number of infiltrated lymphocytes in the spinal cord, ranking among the groups ([1]; 100 μg intraperitoneally once a day from day 7 to day 13, groups K2, AP-K2, Myr-K2, Myr-K3) | expression of IL-17 T cells, IFN-γ T cells and Foxp3 T cells compared to PBS ([1]; 100 μg intraperitoneally once a day from day 7 to day 13, spinal cord lymphocytes) | effect of inhibiting the IL-17 cytokine compared to the dNP2-ctCTLA-4 group ([2]; 4 days) | reduction of IL-17 as compared to the control group ([2]; 4 days, CD4+IL-17A+ T cells) | increase of Foxp3 as compared to the control group ([2]; 4 days, CD4+foxp3+ T cells) [times] | effect of suppressing immune response (decrease of IL-17 and increase of Foxp3) [2] | function of inhibiting myelin damage (histological analysis of the spinal cord) ([1]; 100 μg intraperitoneally once a day from day 7 to day 14, luxol fast blue, H&E) |
| --- | --- | --- | --- | --- | --- | --- | --- | --- | --- | --- | --- |
| RRRWCKRRRGGKMLKKRSKMLKKRS (AP-K2) | significantly improved results for clinical symptoms as compared to the PBS (control group); also recorded: significantly improved result for clinical symptoms as compared to the PBS group | an increase comparable to that of dNP2-ctCTLA-4 | significantly number of regulatory T cells (Treg) as compared to the PBS (control group) | significantly smaller number of infiltrated lymphocytes in the spinal cord as compared to the PBS (control group), dNP2 and AP groups; also recorded: significantly smaller number of infiltrated lymphocytes in the spinal cord than the PBS (control group) | most superior effects | inhibited expression of II-17 T cells and IFN-γ T cells and increase of Foxp3 T cells as compared to the PBS (control group) | remarkably superior effect of inhibiting the IL-17 cytokine as compared to the dNP2-ctCTLA-4 group | reduced IL-17 to half or less | ≥ 5 | significantly better effect of suppressing immune response than the PBS (control group) |  |
| RRRWCKRRRGGKMLKKRSKMLKKRSKMLKKRS (AP-K3) | significantly improved results for clinical symptoms as compared to the PBS (control group) |  | significantly number of regulatory T cells (Treg) as compared to the PBS (control group) | significantly smaller number of infiltrated lymphocytes in the spinal cord as compared to the PBS (control group), dNP2 and AP groups |  |  | remarkably superior effect of inhibiting the IL-17 cytokine as compared to the dNP2-ctCTLA-4 group |  |  | significantly better effect of suppressing immune response than the PBS (control group) |  |
| B1 | significantly lower clinical symptoms as compared to the PBS group |  | smallest number of Treg cells | significantly larger number of infiltrated lymphocytes in the spinal cord as compared to the PBS group |  |  |  |  |  | the function of the decrease of IL-17 and the increase of Foxp3 was lost | the function of inhibiting myelin damage was lost |
